Source: patent US20260355318A1, “MOLECULAR MACHINES FOR TREATMENT OF CANCER, FUNGAL INFECTIONS, OR BACTERIAL INFECTIONS” (priority 2022, published 2026)

Legend:
C. albicans [1] = experiment: Time-kill assay, C. albicans; type: cell-based, Candida albicans
Procedure: (§1) For yeasts, five independent colonies were collected from 24-h SDAE plates, inoculated into yeast peptone with 2% dextrose (YPD), and grown for 24 h at 30 °C. Cells were then sub-cultured in fresh medium and grown for ~9 h. Afterward, the cells were centrifuged (5,000 ×g, 5 min), washed, and resuspended in phosphate-buffered saline (PBS) to ~10^6 CFU mL^−1. For A. fumigatus, conidia suspensions (~10^4 CFU mL^−1) were prepared in PBS as previously described.
(§2) Amphotericin B (AMB, 4×MIC) controls were prepared likewise, but light was omitted. Aliquots were collected in 1-min increments for up to 10 min, serially diluted in PBS, and plated on SDAE medium. Plates were incubated at 30 ° C for 48 h with confirmation after 72 h (yeasts) or at 28 ° C for 7 days with confirmation after 14 days (A. fumigatus), after which the CFU number was determined. The results were expressed as the logarithm of base 10 of the ratio between the CFU at each time point and the CFU at time 0. The detection limit of the method was ~1 log10 CFU mL^−1.

C. albicans [2] = experiment: MIC, visible-light-activated MMs and conventional antifungals, C. albicans; type: cell-based, Candida albicans (ATCC 18804)
Procedure: C. albicans cell suspensions were incubated with increasing concentrations of MMs and irradiated with 405-nm light at 292 mW cm^−2 for 5 min (87.6 J cm^−2). The minimum inhibitory concentration (MIC) was defined as the MM concentration resulting in no visible fungal growth after irradiation with 87.6 J cm^−2 of 405-nm light.
(§3) Cell suspensions for susceptibility testing (MMs and conventional antifungals) were prepared per the Clinical & Laboratory Standards Institute (CLSI) guidelines (CLSI, 2017; CLSI, 2008). Before testing, yeasts (C. albicans and S. cerevisiae) were sub-cultured in Sabouraud Dextrose Agar-Emmons Modification (SDAE) plates and grown for 24 h at 30 °C. Five independent colonies from 24-h-old plates were collected and diluted to ~10^4 colony forming units (CFU) per mL in sterile saline (CLSI, 2017). Molds (A. fumigatus and the dermatophytes T. rubrum and M. gypseum) were sub-cultured on SDAE medium and incubated for 7 days at 28 °C. Conidia were recovered by covering the plates with sterile distilled water and scraping the colonies. The suspensions were filtered (8-μm pore size) and diluted in saline to ~10^4 CFU mL^−1 (Santos and Hamdan, 2005).
(§4) After a 30-min incubation in the dark, cell suspensions were transferred to small, sterilized glass beakers, which were then placed in a water bath. Each sample was irradiated with 405-nm light at 292 mW cm^−2 for 5 min, corresponding to a light dose of 87.6 J cm^−2, determined using an S415C thermal power sensor (Thorlabs, Newton, MA, USA). During irradiation, the cell suspensions were agitated with a small metal stirrer. A thermocouple probe (model SC-TT-K-30-36-PP; Omega Engineering, Inc., Stanford, CT, USA) was used to monitor the temperature during irradiation. Irradiated cell suspensions were inoculated in 3-(N-morpholino) propanesulfonic acid (MOPS)-buffered Roswell Park Memorial Institute Medium (RPMI) 1640 (pH 7.0). Tubes were incubated at 30 ° C for 48 h (yeasts) and 28 ° C for 7 days (molds). The antifungal or MM concentration resulting in no visible growth was defined as the minimum inhibitory concentration (MIC) (CLSI, 2017; CLSI, 2008). Similarly prepared cell suspensions were used to determine the MIC of conventional antifungals.

superoxide dismutase = experiment: Superoxide dismutase (SOD) activity; type: cell-based, Candida albicans; conditions: 0.5×MIC, p<0.05
Procedure: (§5) Superoxide dismutase (SOD) activity was determined using a Superoxide Dismutase Assay Kit (Caymanchem, MI, USA) per the distributor's instructions. Lipid peroxidation was determined using a TBARS assay kit (TCA method) (Caymanchem, MI, USA) per the distributor's instructions. SOD activity and MDA levels were normalized by protein content determined by the Pierce assay (Pierce™ BCA Protein Assay Kit, Thermo Fisher Scientific, MA, USA).

C. albicans [3] = experiment: Lipid peroxidation (TBARS, MDA); type: cell-based, Candida albicans; conditions: 2×MIC
Procedure: as §5

A. fumigatus [4] = experiment: Time-kill assay, A. fumigatus; type: cell-based, Aspergillus fumigatus; conditions: 2×MIC, 405-nm light at 292 mW cm^−2
Procedure: as §1, §2

[5] = Estimated rotation rate after light activation; conditions: based on known motors with similar core skeletons
C. albicans [6] = experiment: Development of resistance / cross-resistance in C. albicans (serial passage, single-step); type: cell-based; conditions: Candida albicans, read-out: MIC of MM in antifungal-resistant C. albicans
Procedure: FIG. 3: Evaluation of the development of resistance to MMs in C. albicans. For the stepwise resistance assessment by serial passage (left), C. albicans cell suspensions were treated with increasing concentrations (0.3125-160 μM) of different MMs (8 mM stock in DMSO) and then irradiated with […] light (87.6 J cm^−2). The irradiated cell suspensions were then inoculated in MOPS-buffered RPMI 1640 (pH 7.0, Sigma, MO, USA), and the tubes were incubated at 30 ° C for 48 h. […] Cells able to grow at 0.5×MIC of each MM were collected by centrifugation (5,000×g, 5 min), resuspended and re-challenged with a range of MM concentrations and irradiated with 405 nm light (87.6 J cm^−2). The procedure was repeated for a total of 20 consecutive cycles. […] Irradiated cells were then inoculated in YPD and incubated at 30 °C. However, MM-resistant colonies could not be recovered even after 14 days of incubation. Created with Biorender.com.
A modified version of the broth microdilution serial passage method was used to assess the development of resistance to visible-light-activated MMs in C. albicans (Kapoor et al., 2019). C. albicans cell suspensions were prepared and irradiated as previously described for the determination of MM MIC. Cells were then inoculated into buffered RPMI 1640 and incubated at 30 ° C for 48 h. Cells able to grow at 0.5×MIC of MM were centrifuged (5,000×g, 5 min), resuspended, rechallenged with different MM concentrations, and irradiated with 405-nm light (87.6 J cm^−2). The procedure was repeated for 20 consecutive cycles. The antifungals AMB, CAS, and FLC were processed similarly, except that light was omitted, and used as controls.

S. cerevisiae [7] = experiment: Time-kill assay, S. cerevisiae; type: cell-based, Saccharomyces cerevisiae; conditions: 2×MIC, 405-nm light at 292 mW cm^−2
Procedure: as §1, §2

[8] = test system: mature C. albicans biofilms; experiment: Biofilm biomass (crystal violet); type: cell-based, Candida albicans; conditions: 2×, 4×MIC, vs DMSO, MMs with 87.6 J cm^−2 405-nm light
Procedure: (§6) The antibiofilm activity of MMs was investigated using 96-well microtiter plates with flat-bottom wells as a closed static biofilm reactor. This setup is reliable, inexpensive, easy to use and obtain, and requires no additional equipment (Pierce et al., 2010). Two parameters were used to evaluate antibiofilm activity: biofilm biomass and biofilm viability. Biofilm biomass was determined using the crystal violet method (Martins et al, 2010), a simple, inexpensive, and readily accessible method for determining biofilm biomass. However, because crystal violet binds both live and dead cells as well as extracellular polymeric substances, it cannot be used alone to reliably assess antibiofilm activity. To overcome this limitation, the XTT assay was used to evaluate biofilm viability (Nett et al., 2011). This assay is based on the reduction of the tetrazolium salt XTT to formazan by dehydrogenases in the mitochondrial electron transport chain of living cells. The resulting formazan can be easily detected by measuring the absorbance at 490 nm, which is proportional to the number of living cells, providing a reliable quantitative measurement of metabolically active cells in biofilms (Taff et al., 2012). […]
Biofilm biomass was determined by the crystal violet method, as previously described (Martins et al., 2010). […]

[9] = test system: C. albicans plasma membrane; experiment: Plasma membrane fluidity, DPH fluorescence; type: cell-based, Candida albicans
Procedure: The effects of MMs on C. albicans membrane dynamics were evaluated using DPH fluorescence (Kim et al., 2009). […] AMB-treated cells were used as controls. Samples were fixed with 0.37% formaldehyde and labeled with 0.6 mM DPH, as previously described (Kim et al., 2009). […] DPH fluorescence of untreated samples minus background was defined as 100% and used to calculate changes in treated samples.

[10] = test system: mature C. albicans biofilms; experiment: Biofilm viability (XTT assay); type: cell-based, Candida albicans; conditions: 2×, 4×MIC, vs DMSO, MMs with 87.6 J cm^−2 405-nm light
Procedure: as §6, with “This assay is based on the reduction of the tetrazolium salt XTT to formazan by dehydrogenases in the mitochondrial electron transport chain of living cells.” left out
Biofilm viability was determined using an XTT cell viability assay kit (Biotium, Hayward, CA, USA) per the manufacturer's instructions. […] Normalized absorbance values were obtained by subtracting the background from the signal.

A. fumigatus [11] = experiment: MIC, MMs and antifungals, A. fumigatus; type: cell-based, Aspergillus fumigatus (ATCC 1022); conditions: A. fumigatus, broth microdilution
Procedure: as §3
After a 30-min incubation in the dark, cell suspensions were transferred to small, sterilized glass beakers, which were then placed in a water bath. Each sample was irradiated with 405-nm light at 292 mW cm^−2 for 5 min, corresponding to a light dose of 87.6 J cm^−2, determined using an S415C thermal power sensor (Thorlabs, Newton, MA, USA). During irradiation, the cell suspensions were agitated with a small metal stirrer. […]

S. cerevisiae [12] = experiment: MIC, MMs and antifungals, S. cerevisiae; type: cell-based, Saccharomyces cerevisiae (ATCC 13007); conditions: broth microdilution
Procedure: as §3, §4

C. albicans [13] = experiment: Influence of BAPTA-AM on MM-induced killing and intracellular calcium; type: cell-based, Candida albicans; conditions: MM 1 2×MIC
Procedure: C. albicans cells were grown as described above and resuspended in HHBS (~10^6 CFU mL^−1). The cation chelator 1,2-bis(2-aminophenoxy) ethane-N,N,N′,N′-tetraacetic acid acetoxymethyl ester (BAPTA-AM) was then added (0.25-1 mM, final concentration) (Li et al., 2020). Unamended cells were used as controls. After a 30-min dark incubation at 30 ° C, the cells were centrifuged (5,000×g, 5 min), washed, and resuspended in HHBS. […] After 30 min, the cells were irradiated and processed as described for the time-kill experiments.

## C[C@@H]1Cc2ccc3ccccc3c2/C1=C1\c2ccccc2Sc2cc(NCCN3CCNCC3)ccc21 (mixture of isomers) [MM 7, 9-(2-methyl-2,3-dihydro-1H-cyclopenta[a]naphthalen-1-ylidene)-N-(2-(piperazin-1-yl)ethyl)-9H-thioxanthen-3-amine]
C. albicans [1]; C. albicans, 2×MIC, 405-nm light at 292 mW cm^−2
  time to reduce cell numbers to limit of detection: 9 min
C. albicans [2]; Candida albicans, read-out: MIC of MM
  MIC: ≤ 5 µM
Superoxide dismutase
  superoxide dismutase activity: increased superoxide dismutase activity
C. albicans [3]
  lipid peroxidation product levels: increased levels of the lipid peroxidation product malonaldehyde
A. fumigatus [4]
  time to reduce cell numbers to limit of detection: 9 min
[5]
  estimated rotation rate after light activation: 3 MHz
C. albicans [6]
  MIC: 5 µM
S. cerevisiae [7]
  time to population eradication: 5 min

## C[C@@H]1[C@H](O)[C@@H](C)/C=C/C=C/C=C/C=C/C=C/C=C/C=C/[C@H](O[C@@H]2O[C@H](C)[C@@H](O)[C@H](N)[C@@H]2O)C[C@@H]2O[C@](O)(C[C@@H](O)C[C@@H](O)[C@H](O)CC[C@@H](O)C[C@@H](O)CC(=O)O[C@H]1C)C[C@H](O)[C@H]2C(=O)O [Amphotericin B (AMB), Amphotericin B]
C. albicans [1]; time-kill, FIG. 1D / FIG. 2, AMB at 4×MIC
  effect on fungal cell number: non-significant reduction in cell numbers
C. albicans [2]; C. albicans, broth microdilution
  MIC of antifungal agent: 1 µg/mL
[8]
  reduction of biofilm biomass: 6%
[9]
  DPH fluorescence: reduces DPH fluorescence
[10]
  reduction of biofilm viability: 20%
A. fumigatus [11]
  MIC of antifungal agent: 2 µg/mL
S. cerevisiae [12]
  MIC of antifungal agent: 0.5 µg/mL

## CC(=O)OCOC(=O)CN(CC(=O)OCOC(C)=O)c1ccccc1OCCOc1ccccc1N(CC(=O)OCOC(C)=O)CC(=O)OCOC(C)=O [BAPTA-AM, 1,2-bis(2-aminophenoxy) ethane-N,N,N′,N′-tetraacetic acid acetoxymethyl ester]
C. albicans [13]
  effect of calcium chelator on MM-induced cell death: Mitigation of MM-induced cell death
